Reference: publication PMC6121244, “Differences in Functional Expression of Connexin43 and NaV1.5 by Pan- and Class-Selective Histone Deacetylase Inhibition in Heart” (International Journal of Molecular Sciences, 2018)
Read-outs that look alike come from different tables or passages of the source.

Columns and labels:
HDAC3 = tested on: HDAC3; parameters: method as in PMID 22262760; details: cited from earlier work
IK,to and IK,ss in NMVMs = assay: Transient and steady state outward K+ currents, whole cell patch clamp; details: 25 nM ACY-1215, 24 h
[1] = tested on: cardiac sodium current (INa) in NMVMs, primarily NaV1.5; assay: Cardiac sodium current (INa) density and Vm-dependent gNa activation/inactivation, whole cell patch clamp; format: cell-based, mouse
Excerpt: Since both the activation and inactivation of INa are dependent on the membrane potential (Vm), we calculated the normalized Na^+ conductance (gNa) by dividing the average peak INa by the difference between Vm and the reversal potential (Erev) for INa, and then divided the gNa value for each Vm by the maximum gNa value for each experiment. The gNa–Vm curves were fit with a Boltzmann function gNa= gNamax+ (gNa− gNamax)/[1+exp((Vm− V1/2)/dVm)] using Origin 8.6. […] Final DMSO levels were <0.005% (vol/vol).

HDAC2 = tested on: HDAC2; parameters: method as in PMID 22262760; details: cited from earlier work
HDAC4 = tested on: HDAC4; parameters: method as in PMID 22262760; details: cited from earlier work
[2] = tested on: ventricular gap junction conductance (gj), Cx43-mediated; assay: Gap junction conductance (gj), dual whole cell patch clamp on NMVM cell pairs; format: cell-based, mouse; details: 10 or 25 nM ricolinostat, 18–24 h
Description: Final DMSO levels were <0.005% (vol/vol).
Gap junction currents (Ij) were recorded in the dual whole cell configuration according to previously published methods. Upon establishing a dual whole cell patch, Ij was recorded using a 30 s, 20 mV trans-junctional voltage protocol. All dual whole cell current recordings were low-pass filtered at 500 Hz and digitized at 2 KHz using pClamp 8.2 and graphical analysis performed using Origin 7.5 or 8.6 software as previously described.

HDAC1 = tested on: HDAC1; parameters: method as in PMID 22262760; details: cited from earlier work
HDAC7 = tested on: HDAC7; parameters: method as in PMID 22262760; details: cited from earlier work
HDAC8 = tested on: HDAC8; parameters: method as in PMID 22262760; details: cited from earlier work
HDAC5 = tested on: HDAC5; parameters: method as in PMID 22262760; details: cited from earlier work
[3] = tested on: total HDAC activity in cultured neonatal mouse ventricular cardiomyocytes; assay: Fluor de Lys total HDAC activity assay in cultured ventricular cardiomyocytes; format: cell-based; details: NMVMs, 18–24 h treatment
Description: Neonatal mice born from an inbred C57BL/6 mouse colony were anesthetized using isoflurane and the hearts were excised in accordance with procedures approved by the SUNY Upstate Medical University Institutional Animal Care and Use Committee (IACUC) # 263 on 15 March 2017. The excised hearts were separated into atria and ventricles and exposed to collagenase solution for digestion. The dissociated cells were pre-plated for 30 min to reduce fibroblast content by differential adhesion and the supernatant was collected, centrifuged and re-suspended in 1 mL/heart of M199/10% FBS culture media. The primary cells were plated into 96-well plates for HDAC activity assays, 35 mm culture dishes for patch clamp electrophysiology, or 60 mm culture dishes and homogenized after 3 days for Western blots.
Aliquots of 2 × 10^5 ventricular myocytes per well (96-well plate) were grown in 200 μL of 200 μM bromodeoxyuridine (BrDU)/M199, exchanged daily. Cell densities were counted with a hemocytometer and seeded into the wells. Wells were incubated with 2000 pmoles of the acetylated Fluor-de-Lys® substrate for 8 h during HDAC inhibition. […]

HDAC9 = tested on: HDAC9; parameters: method as in PMID 22262760; details: cited from earlier work
[4] = tested on: Cx43 protein expression in NMVMs; assay: Western blot of Cx43 protein level; format: cell-based, mouse; details: 25 nM ricolinostat, 24 h
[5] = tested on: NaV1.5 protein expression in NMVMs; assay: Western blot of NaV1.5 protein level; format: cell-based, mouse; details: 25 nM ricolinostat, 24 h
[6] = tested on: acetyl-α-tubulin and acetyl-histone 3; assay: Western blot of acetylation markers; details: 25 nM ACY-1215, 24 h
late INa in NMVMs = assay: Late INa, whole cell patch clamp; format: cell-based, mouse; details: 25 nM ricolinostat 18–24 h, Vm ramp
Excerpt: Increases in late or persistent INa have been linked to cardiac arrhythmias and heart failure. […] . Subsequently, we modified a voltage clamp ramp protocol designed to generate late INa I–V relationships. […] .

[7] = 25 nM ricolinostat, listed as ricolinostat

SMILES: O=C(CCCCCCNC(=O)c1cnc(N(c2ccccc2)c2ccccc2)nc1)NO [Ricolinostat, ricolinostat]
- transient outward and steady state K+ currents (IK,to and IK,ss in NMVMs): no si gni ficant chang es
- increase in peak INa ([1]; 25 nM ricolinostat, not statistically significant (p = 0.054, one-way ANOVA)): 93%
- effect on peak INa density ([1]; 10 and 25 nM ricolinostat): concentration-dependent, but non-significant, increase
- effect on ventricular gj [2]: modest but non-significant increases and decreases in gj, respectively
- IC50 (HDAC7): 1400 nM
- C1, decay constant of first exponential component of HDAC inhibition curve ([3]; double exponential fit): 16.9 ± 15.1 nM
- C2, decay constant of second exponential component of HDAC inhibition curve ([3]; double exponential fit): 204 ± 52 nM
- IC50 ([3]; read-out: IC50(1), high affinity site, total HDAC activity, IC50 = 0.693·C1): 12 nM
- IC50 ([3]; read-out: IC50(1), high affinity site, total HDAC activity, IC50 = 0.693·C1, listed as ACY-1215): 11.7 ± 10.5 nM
- IC50 ([3]; read-out: IC50(2), low affinity site, total HDAC activity, IC50 = 0.693·C2): 140 nM
- IC50 ([3]; read-out: IC50(2), low affinity site, total HDAC activity, IC50 = 0.693·C2, listed as ACY-1215): 141 ± 36 nM
- Cx43 protein level [4]: no significant changes
- NaV1.5 protein level [5]: no significant changes
- Ac-H3 and Ac-α-tubulin signals [6]: only increased the Ac-α-tubulin signal
- effect on late INa current density (late INa in NMVMs): no increase in late INa
